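Exposure lasted 48 hours, with cells grown in 96-well plates and compounds tested at five concentrations. GI50 is the concentration that inhibits growth by half.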 Active and inactive are the calls of the source. Cut-off read from the data, not from the text of the source: active = GI50 up to about 1.1 µM and inactive = higher.
Experiments:
Experiment in all cases: growth of human tumour cells (NCI), 48 h
NCI-H460 = tested on: NCI-H460
NCI/ADR-RES = tested on: NCI/ADR-RES
BT-549 = tested on: BT-549
786-0 = tested on: 786-0
SK-MEL-2 = tested on: SK-MEL-2
RXF 393 = tested on: RXF 393
HOP-92 = tested on: HOP-92
Malme-3M = tested on: Malme-3M
K562 = tested on: K562
NCI-H522 = tested on: NCI-H522
SNB-75 = tested on: SNB-75
SF-539 = tested on: SF-539
SW-620 = tested on: SW-620
MDA-MB-435 = tested on: MDA-MB-435
RPMI-8226 = tested on: RPMI-8226
SF-268 = tested on: SF-268
KM12 = tested on: KM12
MDA-MB-231 = tested on: MDA-MB-231
SK-MEL-28 = tested on: SK-MEL-28
HOP-62 = tested on: HOP-62
T47D = tested on: T47D
HT-29 = tested on: HT-29
UACC-62 = tested on: UACC-62
IGROV-1 = tested on: IGROV-1
TK-10 = tested on: TK-10
EKVX = tested on: EKVX
OVCAR-4 = tested on: OVCAR-4
MOLT-4 = tested on: MOLT-4
ACHN = tested on: ACHN
SK-MEL-5 = tested on: SK-MEL-5
LOX IMVI = tested on: LOX IMVI
MDA-N = tested on: MDA-N
SK-OV-3 = tested on: SK-OV-3
SNB-19 = tested on: SNB-19
Hs-578T = tested on: Hs-578T
U-251 = tested on: U-251
HL-60 = tested on: HL-60
OVCAR-3 = tested on: OVCAR-3
PC-3 = tested on: PC-3
HCT-116 = tested on: HCT-116
A549 = tested on: A549
HCC 2998 = tested on: HCC 2998
SF-295 = tested on: SF-295
SN12C = tested on: SN12C
NCI-H226 = tested on: NCI-H226
COLO 205 = tested on: COLO 205
HCT-15 = tested on: HCT-15
CAKI-1 = tested on: CAKI-1
MCF7 = tested on: MCF7
M14 = tested on: M14
DU-145 = tested on: DU-145
NCI-H23 = tested on: NCI-H23
OVCAR-8 = tested on: OVCAR-8
UO-31 = tested on: UO-31
OVCAR-5 = tested on: OVCAR-5
UACC-257 = tested on: UACC-257
SR = tested on: SR

O=C(Nc1ccc2cc3ccccc3cc2c1)c1cc2c(cc1Cl)Sc1nccn1S2(=O)=O
GI50 (NCI-H460): 28.7 µM (inactive) | GI50 (NCI/ADR-RES): > 100 µM (inactive) | GI50 (BT-549): 32.5 µM (inactive) | GI50 (786-0): 4.73 µM (inactive) | GI50 (SK-MEL-2): 85.9 µM (inactive) | GI50 (RXF 393): 45.6 µM (inactive) | GI50 (HOP-92): 42 µM (inactive) | GI50 (Malme-3M): 19.5 µM (inactive) | GI50 (K562): 10.8 µM (inactive) | GI50 (NCI-H522): 33.7 µM (inactive) | GI50 (SNB-75): 13.3 µM (inactive) | GI50 (SF-539): 7.8 µM (inactive) | GI50 (SW-620): 13.9 µM (inactive) | GI50 (MDA-MB-435): 28.4 µM (inactive) | GI50 (RPMI-8226): > 100 µM (inactive) | GI50 (SF-268): 15.3 µM (inactive) | GI50 (KM12): 33.7 µM (inactive) | GI50 (MDA-MB-231): 8.97 µM (inactive) | GI50 (SK-MEL-28): 19.1 µM (inactive) | GI50 (HOP-62): 59.6 µM (inactive) | GI50 (T47D): 25.2 µM (inactive) | GI50 (HT-29): 18.9 µM (inactive) | GI50 (UACC-62): 64.9 µM (inactive) | GI50 (IGROV-1): 15.9 µM (inactive) | GI50 (TK-10): 16 µM (inactive) | GI50 (EKVX): 35.6 µM (inactive) | GI50 (OVCAR-4): 10.3 µM (inactive) | GI50 (MOLT-4): 33.4 µM (inactive) | GI50 (ACHN): 67.1 µM (inactive) | GI50 (SK-MEL-5): 7.93 µM (inactive) | GI50 (LOX IMVI): 16.8 µM (inactive) | GI50 (MDA-N): 44.4 µM (inactive) | GI50 (SK-OV-3): > 100 µM (inactive) | GI50 (SNB-19): 25.1 µM (inactive) | GI50 (Hs-578T): > 100 µM (inactive) | GI50 (U-251): 5.48 µM (inactive) | GI50 (HL-60): 17.7 µM (inactive) | GI50 (OVCAR-3): > 100 µM (inactive) | GI50 (PC-3): 6.47 µM (inactive) | GI50 (HCT-116): 3.85 µM (inactive) | GI50 (A549): 13.6 µM (inactive) | GI50 (HCC 2998): 6.84 µM (inactive) | GI50 (SF-295): 13.4 µM (inactive) | GI50 (SN12C): 60.3 µM (inactive) | GI50 (NCI-H226): 82.8 µM (inactive) | GI50 (COLO 205): 87.3 µM (inactive) | GI50 (HCT-15): 20.7 µM | GI50 (CAKI-1): > 100 µM (inactive) | GI50 (MCF7): > 100 µM (inactive) | GI50 (M14): 42.7 µM (inactive) | GI50 (DU-145): 20.6 µM (inactive) | GI50 (NCI-H23): 46.5 µM (inactive) | GI50 (OVCAR-8): 26.4 µM (inactive) | GI50 (UO-31): 68.5 µM (inactive) | GI50 (OVCAR-5): 21.7 µM (inactive) | GI50 (UACC-257): 58.3 µM (inactive) | GI50 (SR): 35.2 µM (inactive)

From ChEMBL document CHEMBL1201862, “PubChem BioAssay data set” (2004)
